Experimental data taken from paper PMC7015555, “Transthyretin-Binding Activity of Complex Mixtures Representing the Composition of Thyroid-Hormone Disrupting Contaminants in House Dust and Human Serum” (Environmental Health Perspectives, 2020).
Read-outs that look alike come from different tables or passages of the source.

Experiments:
TTR [1] = biological target: TTR (Homo sapiens, UniProt P02766); test: FITC-T4 TTR competitive binding assay; settings: for REP (relative potency compared to T4): IC20 of T4 / IC20 of compound (Equation 14); for T4EQ concentration (nmol/g dust): reported concentration of the compound in SRM2585 dust x REP
TTR [2] = settings: cited from earlier work; for IC50: read-out: IC50 (M), Radioactive Ligand Binding Assay data from the literature; for REP, Radioactive Ligand Binding Assay data from the literature: relative effect potency
[3] = 20% inhibition of FITC-T4 binding to TTR, 30 nM TTR, 110 nM FITC-T4, 2 h at 4°C, pH 8.0
[4] = individual compounds, 30 nM TTR, 110 nM FITC-T4, 2 h at 4°C, pH 8.0, — = 50% inhibition level not reached (footnote g), read-out: IC50
[5] = inhibitor-TTR dissociation constant converted from IC20 (Equation 4), 4°C, read-out: Ki

Compound | IC20 (TTR [1]; [3]) [nM] | REP (relative potency compared to T4) (TTR [1]) | IC50 (TTR [1]; [4]) [nM] | Ki (TTR [1]; read-out: Ki) [nM] | T4EQ concentration (nmol/g dust) (TTR [1]) | IC50 (TTR [2]; ref Weiss et al. 2015) [M] | Ki (TTR [1]; [5]) [nM] | REP, Radioactive Ligand Binding Assay data from the literature (TTR [2]; ref Weiss et al. 2015) | IC50 (TTR [1]) [nM] | Ki (TTR [1]) [nM] | IC20 (TTR [1]; pH 8) [nM] | inhibition of FITC-T4-TTR-binding (TTR [1]; present study (Figure 1C)) [%] | IC50 (TTR [1]; read-out: IC50) [nM] | T4-TTR binding inhibition in the RLBA (TTR [2]; at 10 µM (highest concentration), ref Hamers et al. 2011) | IC50 (TTR [2]; ref Zhang et al. 2015) [M] | REP, Radioactive Ligand Binding Assay data from the literature (TTR [2]; ref Zhang et al. 2015) | maximum competitive potency at high test concentrations (TTR [1]; Figure 1C) | REP, Radioactive Ligand Binding Assay data from the literature (TTR [2]; ref Hamers et al. (2011)) | pIC50 in the RLBA (TTR [2]; –log(IC50), ref Excel Table S1)
O=C(O)C(F)(F)C(F)(F)C(F)(F)C(F)(F)C(F)(F)F [PFHxA, perfluorohexanoic acid] | 1600 | 0.014 | 5600 | 3400 | 0.011 | 8.22e-06 |  |  |  |  |  |  |  |  |  |  |  |  | 
Oc1c(Cl)cc(-c2ccc(Cl)c(Cl)c2)c(Cl)c1Cl [4-OH-CB-107, 4-OH-2,3,3ʹ,4ʹ,5-pentachlorobiphenyl] | 34 | 0.63 | 68 |  |  | 2.26e-08 | 59 | 3.5 |  |  |  |  |  |  |  |  |  |  | 
Oc1c(Cl)c(Cl)c(Cl)c(Cl)c1Cl [Pentachlorophenol, pentachlorophenol] |  | 1.2 |  |  |  | 2.3e-07 |  | 1.74 | 60 | 24 | 17 |  |  |  |  |  |  |  | 
Clc1ccc(-c2cc(Cl)c(Cl)cc2Cl)cc1Cl [CB-118, 2,3ʹ,4,4ʹ,5-pentachlorobiphenyl] |  | 0.14 |  |  | 0.011 |  | 320 |  |  |  | 160 | > 20 | 560 | <20% inhibition at 10 µM (Hamers et al. 2011) |  |  |  |  | 
CCCCCCCCCc1ccc(O)cc1 [4-Nonylphenol, 4-nonylphenol] |  | 0.012 |  |  | 0.946 | 1e-05 |  | 0.008 |  | 3900 | 1800 |  | 16000 |  |  |  |  |  | 
CCCOC(=O)c1ccc(O)cc1 [Propylparaben, propyl 4-hydroxybenzoate] |  | 0.0039 |  |  |  |  | 12000 |  |  |  | 5500 |  | 19000 |  | 1.9e-05 | 0.0038 |  |  | 
Clc1cc(Cl)c(-c2cc(Cl)c(Cl)cc2Cl)cc1Cl [CB-153, 2,2ʹ,4,4ʹ,5,5ʹ-hexachlorobiphenyl] |  | 0.27 |  |  | 0.030 | > 1.5e-05 |  | <0.0037 |  | 150 | 77 |  | 180 |  |  |  | leveled off before reaching complete inhibition | <0.0037 | < 4.8
Oc1c(Br)cc(Br)cc1Br [2,4,6-TBP, 2,4,6-tribromophenol] |  | 2.4 |  |  |  | 4.8e-09 |  | 10 |  | 5.5 | 8.9 |  | 29 |  |  |  |  |  | 
Brc1ccc(Oc2ccc(Br)cc2Br)c(Br)c1 [BDE-47, 2,2ʹ,4,4ʹ-tetrabromodiphenyl ether] |  | 0.10 |  |  | 0.103 | 3.6e-05 |  | 0.0025 |  | 440 | 210 |  | 1300 |  |  |  |  |  | 
O=C(O)C(F)(F)C(F)(F)C(F)(F)C(F)(F)C(F)(F)C(F)(F)F [PFHpA, perfluoroheptanoic acid] |  | 0.071 |  |  | 0.048 | 1.57e-06 |  | 0.039 |  | 640 | 300 |  | 1200 |  |  |  |  |  | 
O=S(=O)(O)C(F)(F)C(F)(F)C(F)(F)C(F)(F)F [PFBS, perfluorobutane sulfonic acid] | 2300 | 0.0091 | 9700 |  | 0.002 | 1.95e-05 | 5100 | 0.003 |  |  |  |  |  |  |  |  |  |  | 
O=C(O)C(F)(F)C(F)(F)C(F)(F)C(F)(F)C(F)(F)C(F)(F)C(F)(F)C(F)(F)F [PFNA, perfluorononanoic acid] | 360 | 0.059 | 1100 | 770 | 0.013 | 2.74e-06 |  | 0.022 |  |  |  |  |  |  |  |  |  |  | 
